Measurements: ChEMBL document CHEMBL3885881, “DrugMatrix”

Organism: Rattus norvegicus
Test: DrugMatrix - Regimen: Daily Repeat
Format: toxicity, organism-based, Sprague-Dawley
Design: regimen Daily Repeat, gender Male, age 6-8 weeks
Details: in vivo, po, route oral GAVAGE, vehicle .5 % CMC; for ABSOLUTE BASOPHIL / ABSOLUTE EOSINOPHIL / ABSOLUTE LYMPHOCYTE / ABSOLUTE MONOCYTE / ABSOLUTE SEGMENTED NEUTROPHIL / BASOPHIL / EOSINOPHIL / ERYTHROCYTE COUNT / HEMATOCRIT / HEMOGLOBIN / LEUKOCYTE COUNT / LYMPHOCYTE / MEAN CORPUSCULAR HEMOGLOBIN / MEAN CORPUSCULAR HEMOGLOBIN CONCENTRATION / MEAN CORPUSCULAR VOLUME / MONOCYTE / NEUTROPHIL / NUCLEATED RED BLOOD CELLS / PLATELET COUNT: tissue Blood; for ALANINE AMINOTRANSFERASE / ALBUMIN / ALKALINE PHOSPHATASE / ASPARTATE AMINOTRANSFERASE / BLOOD UREA NITROGEN / CARBON DIOXIDE / CHLORIDE / CHOLESTEROL / CREATINE PHOSPHOKINASE / CREATININE / GLUCOSE / LACTATE DEHYDROGENASE / LIPASE / PHOSPHORUS / POTASSIUM / SODIUM / TOTAL BILIRUBIN / TOTAL PROTEIN / URIC ACID: tissue Plasma
[1] = 0 mg/kg, 72 h, dose level Control, time 3 day
[2] = 0 mg/kg, 120 h, dose level Control, time 5 day
[3] = 10 mg/kg, 72 h, dose level Low, time 3 day

SMILES: COc1c(C)c2c(c(O)c1C/C=C(\C)CCC(=O)OCCN1CCOCC1)C(=O)OC2 [MYCOPHENOLATE MOFETIL]
- ABSOLUTE BASOPHIL [1]: 0 CELLS/uL
- ABSOLUTE EOSINOPHIL [1]: 0 CELLS/uL
- ABSOLUTE LYMPHOCYTE [1]: 12191.17 CELLS/uL
- ABSOLUTE MONOCYTE [1]: 183.17 CELLS/uL
- ABSOLUTE SEGMENTED NEUTROPHIL [1]: 1192.33 CELLS/uL
- BASOPHIL [1]: 0%
- EOSINOPHIL [1]: 0%
- ERYTHROCYTE COUNT [1]: 5.51 x10E6/uL
- HEMATOCRIT [1]: 35.45%
- HEMOGLOBIN [1]: 13.82 G/DL
- LEUKOCYTE COUNT [1]: 13.57 x10E3/uL
- LYMPHOCYTE [1]: 89.83%
- MEAN CORPUSCULAR HEMOGLOBIN [1]: 25.1 pg
- MEAN CORPUSCULAR HEMOGLOBIN CONCENTRATION [1]: 38.98 G/DL
- MEAN CORPUSCULAR VOLUME [1]: 64.42 fL
- MONOCYTE [1]: 1.33%
- NEUTROPHIL [1]: 8.83%
- NUCLEATED RED BLOOD CELLS [1]: 0 /100WBC
- PLATELET COUNT [1]: 1118.17 x10E3/uL
- ALANINE AMINOTRANSFERASE [1]: 55 u/L
- ALBUMIN [1]: 4.15 G/DL
- ALKALINE PHOSPHATASE [1]: 449.5 u/L
- ASPARTATE AMINOTRANSFERASE [1]: 112.83 u/L
- BLOOD UREA NITROGEN [1]: 17.33 mg/dL
- CARBON DIOXIDE [1]: 29.5 mmol/L
- CHLORIDE [1]: 101 MEQ/L
- CHOLESTEROL [1]: 70 mg/dL
- CREATINE PHOSPHOKINASE [1]: 1325.83 u/L
- CREATININE [1]: 0.18 mg/dL
- GLUCOSE [1]: 171.5 mg/dL
- LACTATE DEHYDROGENASE [1]: 386 u/L
- LIPASE [1]: 10 u/L
- PHOSPHORUS [1]: 11.57 mg/dL
- POTASSIUM [1]: 6.21 MEQ/L
- SODIUM [1]: 141.65 MEQ/L
- TOTAL BILIRUBIN [1]: 0.15 mg/dL
- TOTAL PROTEIN [1]: 5.75 G/DL
- URIC ACID [1]: 1.28 mg/dL
- ABSOLUTE BASOPHIL [2]: 0 CELLS/uL
- ABSOLUTE EOSINOPHIL [2]: 138.17 CELLS/uL
- ABSOLUTE LYMPHOCYTE [2]: 13283.17 CELLS/uL
- ABSOLUTE MONOCYTE [2]: 303.83 CELLS/uL
- ABSOLUTE SEGMENTED NEUTROPHIL [2]: 1308.17 CELLS/uL
- BASOPHIL [2]: 0%
- EOSINOPHIL [2]: 1%
- ERYTHROCYTE COUNT [2]: 5.32 x10E6/uL
- HEMATOCRIT [2]: 33.8%
- HEMOGLOBIN [2]: 13.63 G/DL
- LEUKOCYTE COUNT [2]: 15.03 x10E3/uL
- LYMPHOCYTE [2]: 88.33%
- MEAN CORPUSCULAR HEMOGLOBIN [2]: 25.68 pg
- MEAN CORPUSCULAR HEMOGLOBIN CONCENTRATION [2]: 40.35 G/DL
- MEAN CORPUSCULAR VOLUME [2]: 63.67 fL
- MONOCYTE [2]: 1.83%
- NEUTROPHIL [2]: 8.83%
- NUCLEATED RED BLOOD CELLS [2]: 0 /100WBC
- PLATELET COUNT [2]: 1097.5 x10E3/uL
- ALANINE AMINOTRANSFERASE [2]: 54.5 u/L
- ALBUMIN [2]: 4.27 G/DL
- ALKALINE PHOSPHATASE [2]: 337 u/L
- ASPARTATE AMINOTRANSFERASE [2]: 94.67 u/L
- BLOOD UREA NITROGEN [2]: 17 mg/dL
- CARBON DIOXIDE [2]: 28.33 mmol/L
- CHLORIDE [2]: 101.5 MEQ/L
- CHOLESTEROL [2]: 71.33 mg/dL
- CREATINE PHOSPHOKINASE [2]: 628.17 u/L
- CREATININE [2]: 0.19 mg/dL
- GLUCOSE [2]: 177.83 mg/dL
- LACTATE DEHYDROGENASE [2]: 500.5 u/L
- LIPASE [2]: 9.5 u/L
- PHOSPHORUS [2]: 12.3 mg/dL
- POTASSIUM [2]: 5.63 MEQ/L
- SODIUM [2]: 143.03 MEQ/L
- TOTAL BILIRUBIN [2]: 0.2 mg/dL
- TOTAL PROTEIN [2]: 6.02 G/DL
- URIC ACID [2]: 1.5 mg/dL
- ABSOLUTE BASOPHIL [3]: 0 CELLS/uL
- ABSOLUTE EOSINOPHIL [3]: 76.67 CELLS/uL
- ABSOLUTE LYMPHOCYTE [3]: 12148 CELLS/uL
- ABSOLUTE MONOCYTE [3]: 38.33 CELLS/uL
- ABSOLUTE SEGMENTED NEUTROPHIL [3]: 870.33 CELLS/uL
- BASOPHIL [3]: 0%
- EOSINOPHIL [3]: 0.67%
- ERYTHROCYTE COUNT [3]: 5.1 x10E6/uL
- HEMATOCRIT [3]: 32.07%
- HEMOGLOBIN [3]: 13.3 G/DL
- LEUKOCYTE COUNT [3]: 13.13 x10E3/uL
- LYMPHOCYTE [3]: 92%
- MEAN CORPUSCULAR HEMOGLOBIN [3]: 26.1 pg
- MEAN CORPUSCULAR HEMOGLOBIN CONCENTRATION [3]: 41.47 G/DL
- MEAN CORPUSCULAR VOLUME [3]: 62.87 fL
- MONOCYTE [3]: 0.33%
- NEUTROPHIL [3]: 7%
- NUCLEATED RED BLOOD CELLS [3]: 0 /100WBC
- PLATELET COUNT [3]: 1283 x10E3/uL
- ALANINE AMINOTRANSFERASE [3]: 58 u/L
- ALBUMIN [3]: 4.13 G/DL
- ALKALINE PHOSPHATASE [3]: 363.33 u/L
- ASPARTATE AMINOTRANSFERASE [3]: 110.33 u/L
- BLOOD UREA NITROGEN [3]: 16.33 mg/dL
- CARBON DIOXIDE [3]: 26.33 mmol/L
- CHLORIDE [3]: 102.67 MEQ/L
- CHOLESTEROL [3]: 70.67 mg/dL
- CREATINE PHOSPHOKINASE [3]: 1302.67 u/L
- CREATININE [3]: 0.14 mg/dL
- GLUCOSE [3]: 164 mg/dL
- LACTATE DEHYDROGENASE [3]: 334.67 u/L
- LIPASE [3]: 9.67 u/L
- PHOSPHORUS [3]: 13.07 mg/dL
- POTASSIUM [3]: 5.93 MEQ/L
- SODIUM [3]: 144.23 MEQ/L
- TOTAL BILIRUBIN [3]: 0.1 mg/dL
- TOTAL PROTEIN [3]: 5.53 G/DL
- URIC ACID [3]: 1.57 mg/dL
